Tests used:
Ramos (VLA-4)/VCAM-1 = target: T1, Ramos (VLA-4)/VCAM-1 (Homo sapiens, UniProt P05556+P13612); assay: Ramos (VLA-4)/VCAM-1 Cell-Based Screening Assay (Ramos-VCAM-1 cell adhesion); details: Calcein-AM labeled Ramos cells, immobilized recombinant human VCAM-1
T1 construct: Ramos cells bearing cell-surface VLA-4; endogenous in cells; host or cells: Ramos cells (VLA-4); soluble VCAM-1 purified from CHO cell culture media
Experimental: Ramos (VLA-4)/VCAM-1 Cell-Based Screening Assay Protocol
Soluble recombinant human VCAM-1 (mixture of 5- and 7-Ig domain) was purified from CHO cell culture media by immunoaffinity chromatography and maintained in a solution containing 0.1 M Tris-glycine (pH 7.5), 0.1 M NaCl, 5 mM EDTA, 1 mM PMSF, […] NaN3 and 10 μg/mL leupeptin. Calcein-AM was purchased from Molecular Probes Inc.
VLA-4 (a4b1 integrin) antagonist activity, defined as the ability to compete with cell-surface VLA-4 for binding to immobilized VCAM-1, was quantitated using a Ramos-VCAM-1 cell adhesion assay. Ramos cells bearing cell-surface VLA-4, were labeled with a fluorescent dye (Calcein-AM) and allowed to bind VCAM-1 in the presence or absence of test compounds. A reduction in fluorescence intensity associated with adherent cells (% inhibition) reflected competitive inhibition of VLA-4 mediated cell adhesion by the test compound.
Initially, this entailed coating 96 well plates (Nunc Maxisorp) with recombinant human VCAM-1 (100 ng in 100 μl PBS), sealing each plate and allowing the plates to stand at 4° C. for ^~ 18 hour. The VCAM-coated plates were subsequently washed twice with 0.05% Tween-20 in PBS, and then blocked for 1 hour (room temperature) with 200 μl of Blocking Buffer (1% BSA/0.02% thimerosal) to reduce non-specific binding. Following the incubation with Blocking Buffer, plates were inverted, blotted and the remaining buffer aspirated. Each plate was then washed with 300 μl PBS, inverted and the remaining PBS aspirated.
Test compounds were dissolved in 100% DMSO and then diluted 1:25 in VCAM Cell Adhesion Assay Buffer (4 mM CaCl2, 4 mM MgCl2 in 50 mM TRIS-HCl, pH 7.5) (final DMSO=4%). A series of eight 1:4 dilutions were performed for each compound (general concentration range of 1 nM-12,500 nM). 100 μl/well of each dilution was added to the VCAM-coated plates, followed by 100 μl of Ramos cells (200,000 cells/well in 1% BSA/PBS). Plates containing test compounds and Ramos cells were allowed to incubate for 45 min at room temperature, after which 165 μl/well PBS was added. Plates were inverted to remove non-adherent cells, blotted and 300 μl/well PBS added. Plates were again inverted, blotted and the remaining buffer gently aspirated. 100 μl Lysis Buffer (0.1% SDS in 50 mM TRIS-HCl, pH 8.5) was added to each well and agitated for 2 min on a rotary shaking platform. The plates were then read for fluorescence intensity on a Cytofluor 2300 (Millipore) fluorecence measurement system (excitation=485 nm, emission=530 nm).

VLA-4/VCAM-1 = target: T2, VLA-4/VCAM-1 (Homo sapiens, UniProt P05556+P13612); assay: VLA-4/VCAM-1 Screening Assay (solid-phase, dual antibody ELISA); assay type: binding; details: Ramos cell-derived VLA-4, immobilized recombinant human VCAM-1
T2 construct: Ramos cell-derived VLA-4; endogenous in cells; host or cells: Ramos cells (VLA-4)
From the text: A means for determining the potency of these anti-inflammatory agents is by evaluating their ability to inhibit binding of the integrin VLA-4 to the cell adhesion molecule VCAM-1. For example, the potency of the compounds herein can be determined with respect to the concentration of the compound at 50% inhibition of VCAM/VLA4 binding (IC50) as measured by VLA-4/VCAM-1 binding assay.
In accordance with the present invention, any conventional method known in the art can be used to determine inhibition of VCAM-1/VLA-4 binding. For example, a solid-phase dual antibody ELISA or Ramos cell-based screening assay can be utilized to determine inhibition of VCAM-1/VLA-4 binding.
VLA-4/VCAM-1 Screening Assay
VLA-4 antagonist activity, defined as ability to compete for binding to immobilized VCAM-1, was quantitated using a solid-phase, dual antibody ELISA. VLA-4 (α4β1 integrin) bound to VCAM-1 is detected by a complex of anti-integrin β1 antibody: HRP-conjugated anti-mouse IgG: chromogenic substrate (K-Blue). Initially, this entailed coating 96 well plates (Nunc Maxisorp) with recombinant human VCAM-1 (0.4 μg in 100 μl PBS), sealing each plate and then allowing the plates to stand at 4° C. for 18 hours. […] On the day of assay, all plates are washed twice with VCAM Assay Buffer (200 μl/well of 50 mM Tris-HCl, 100 mM NaCl, 1 mM MnCl2, 0.05% T ween 20; pH 7.4). Test compounds are dissolved in 100% DMSO and then diluted 1:20 in VCAM Assay Buffer supplemented with 1 mg/mL BSA (i.e., final DMSO=5%). A series of 1:4 dilutions are performed to achieve a concentration range of 0.005 nM-1.563 μM for each test compound. 100 μl per well of each dilution is added to the VCAM-coated plates, followed by 10 μl of Ramos cell-derived VLA-4. These plates are sequentially mixed on a platform shaker for 1 min, incubated for 2 hour at 37° C., and then washed four times with 200 μl/well VCAM Assay Buffer. 100 μl of mouse anti-human integrin b1 antibody is added to each well (0.6 μg/mL in VCAM Assay Buffer+1 mg/mL BSA) and allowed to incubate for 1 hour at 37° C. At the conclusion of this incubation period, all plates are washed four times with VCAM Assay Buffer (200 μl/well). A corresponding second antibody, HRP-conjugated goat anti-mouse IgG (100 μl per well @ 1:800 dilution in VCAM Assay Buffer+1 mg/mL BSA), is then added to each well, followed by a 1 hour incubation at room temperature and concluded by three washes (200 μl/well) with VCAM Assay Buffer. Color development is initiated by addition of 100 μl K-Blue per well (15 mim incubation, room temp) and terminated by addition of 100 μl Red Stop Buffer per well. All plates are then read in a UV/Vis spectrophotometer at […]. Results are calculated as % inhibition of total binding (i.e., VLA-4+VCAM-1 in the absence of test compound).

T1 sequence (P13612 34-1032): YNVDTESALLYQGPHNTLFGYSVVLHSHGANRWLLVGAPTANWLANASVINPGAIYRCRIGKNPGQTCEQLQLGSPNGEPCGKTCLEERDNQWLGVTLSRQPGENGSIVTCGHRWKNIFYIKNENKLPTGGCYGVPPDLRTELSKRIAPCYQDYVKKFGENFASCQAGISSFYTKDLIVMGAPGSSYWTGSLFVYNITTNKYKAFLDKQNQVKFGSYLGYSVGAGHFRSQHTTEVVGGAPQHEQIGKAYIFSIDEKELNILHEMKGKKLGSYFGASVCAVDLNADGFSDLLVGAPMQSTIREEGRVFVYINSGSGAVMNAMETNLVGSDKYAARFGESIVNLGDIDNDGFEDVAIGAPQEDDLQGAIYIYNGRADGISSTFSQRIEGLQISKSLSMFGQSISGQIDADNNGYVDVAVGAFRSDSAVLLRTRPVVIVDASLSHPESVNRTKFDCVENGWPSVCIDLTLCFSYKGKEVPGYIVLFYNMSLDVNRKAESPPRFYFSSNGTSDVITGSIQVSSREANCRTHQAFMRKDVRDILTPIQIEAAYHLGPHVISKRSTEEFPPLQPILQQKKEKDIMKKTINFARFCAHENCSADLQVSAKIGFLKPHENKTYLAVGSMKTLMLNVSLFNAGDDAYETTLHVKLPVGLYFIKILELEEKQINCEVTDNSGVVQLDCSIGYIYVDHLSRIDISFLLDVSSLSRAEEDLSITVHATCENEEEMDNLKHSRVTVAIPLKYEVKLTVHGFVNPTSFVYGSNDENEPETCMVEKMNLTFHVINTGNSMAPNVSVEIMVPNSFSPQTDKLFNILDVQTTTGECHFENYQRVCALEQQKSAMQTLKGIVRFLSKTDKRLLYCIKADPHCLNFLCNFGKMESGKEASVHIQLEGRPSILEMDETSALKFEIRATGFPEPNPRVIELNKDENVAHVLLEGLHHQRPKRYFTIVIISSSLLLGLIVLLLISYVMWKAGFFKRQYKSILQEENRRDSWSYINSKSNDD
T1 sequence (P05556 21-798): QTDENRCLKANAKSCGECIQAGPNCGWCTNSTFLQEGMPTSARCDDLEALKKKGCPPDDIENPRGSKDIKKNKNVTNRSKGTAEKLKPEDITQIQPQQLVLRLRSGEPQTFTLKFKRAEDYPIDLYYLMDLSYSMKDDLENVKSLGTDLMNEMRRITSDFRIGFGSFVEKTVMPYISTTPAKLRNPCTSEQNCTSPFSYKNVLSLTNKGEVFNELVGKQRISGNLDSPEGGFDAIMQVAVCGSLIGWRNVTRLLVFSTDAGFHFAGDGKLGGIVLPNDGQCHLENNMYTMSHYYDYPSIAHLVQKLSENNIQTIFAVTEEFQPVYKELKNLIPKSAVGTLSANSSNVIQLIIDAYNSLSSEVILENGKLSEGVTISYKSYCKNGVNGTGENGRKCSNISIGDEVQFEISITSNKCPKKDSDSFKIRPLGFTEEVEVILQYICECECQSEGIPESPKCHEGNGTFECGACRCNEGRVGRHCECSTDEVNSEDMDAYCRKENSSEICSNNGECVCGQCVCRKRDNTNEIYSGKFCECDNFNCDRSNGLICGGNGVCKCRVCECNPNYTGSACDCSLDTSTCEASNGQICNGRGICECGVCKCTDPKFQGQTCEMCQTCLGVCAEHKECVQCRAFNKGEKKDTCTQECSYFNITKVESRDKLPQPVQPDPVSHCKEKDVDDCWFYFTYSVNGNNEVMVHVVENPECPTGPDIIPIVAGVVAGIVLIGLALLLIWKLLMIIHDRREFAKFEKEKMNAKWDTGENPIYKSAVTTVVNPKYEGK
T2 sequence (P13612 34-1032): as the sequence (P13612 34-1032) above
T2 sequence (P05556 21-798): as the sequence (P05556 21-798) above

Structure (SMILES)	IC50 (Ramos (VLA-4)/VCAM-1) [nM]	IC50 (VLA-4/VCAM-1) [nM]
CC(=O)N1CC[C@H](c2ccc(O)cc2)[C@H]1C(=O)N[C@H]1CSSC[C@@H](C(=O)O)NC(=O)C2(CCCC2)CCNC1=O [Example 12, (8R,13R)-13-[[[1-acetyl-3-(R)-(4-hydroxyphenyl)-2-(S)-pyrrolidinyl]carbonyl]amino]-6,14-dioxo-10,11-dithia-7,15-diazaspiro[4. 12]heptadecane-8-carboxylic Acid]	0.21	0.185
CC(=O)N1CC[C@H](c2ccc(O)cc2)[C@H]1C(=O)N[C@H]1CSSC[C@@H](C(=O)O)NC(=O)C2(CCCCC2)CCNC1=O [Example 19, (9R,14R)-14-[[[1-acetyl-3-(R)-(4-hydroxyphenyl)-2-(S)-pyrrolidinyl]-arbonyl]amino]-7,15-dioxo-11,12-dithia-8,16-diazaspiro[5. 12]Octadecane-9-carboxylic Acid]	0.28	0.12
CS(=O)(=O)N1CC[C@H](c2ccc(O)cc2)[C@H]1C(=O)N[C@H]1CSSC[C@@H](C(=O)O)NC(=O)C2(CCCC2)CCNC1=O [Example 22, (8R,13R)-13-[[[1-methylsulfonyl-3-(R)-(4-hydroxyphenyl)-2-(S)pyrrolidinyl]carbonyl]amino]-6,14-dioxo-10,11-dithia-7,15-diazaspiro[4. 12]-heptadecane-8-carboxylic Acid]	–	0.17
CC(C)(C)C(=O)N1CC[C@H](c2ccc(O)cc2)[C@H]1C(=O)N[C@H]1CSSC[C@@H](C(=O)O)NC(=O)C2(CCCC2)CCNC1=O [Example 24, (8R,13R)-13-[[[1-(2,2-dimethyl-1-oxopropyl)-3(R)-(4-hydroxyphenyl)-2(S)-pyrrolidinyl]carbonyl]amino]-6,14-dioxo-10,11-dithia-7,15-diazaspiro[4. 12]heptadecane-8-carboxylic Acid]	0.18	0.14
O=C(O)[C@@H]1CSSC[C@H](NC(=O)[C@H]2NCC[C@@H]2c2ccc(O)cc2)C(=O)NCCC2(CCCC2)C(=O)N1 [Example 26, (8R,13R)-13-[[[3(R)-(4-hydroxyphenyl)-2(S)-pyrrolidinyl]carbonyl]-amino]-6,14-dioxo-10,11-dithia-7,15-diazaspiro[4.12]heptadecane-8-carboxylic Acid]	–	0.19
CC(=O)N1CC[C@@H](c2ccc(O)cc2)[C@@H]1C(=O)N[C@H]1CSSC[C@@H](C(=O)O)NC(=O)C2(CCCC2)CCNC1=O [reference compound]	24	1.65

— patent US6265572A, “Pyrrolidincarbonylamino cyclic disulfide anti-inflammatory agents” (Hoffmann-La Roche Inc., priority 2000, dated 2001)
